# Calls of active or inactive are those of the source. No cut-off for these calls is given here.
# Columns and labels:
# [1] = system: Monocyte; assay: Inhibition of LPS-induced MCP-1 production in mouse Monocyte
# [2] = Drug concentration in LPS induced mouse plasma at 10 mg/kg measured after 2 hrs; type: ADME, organism-based
# [3] = Drug concentration in LPS induced mouse plasma at 100 mg/kg measured after 2 hrs; type: ADME, organism-based
# [4] = system: Mus musculus; assay: Anti-inflammatory activity in endotoxemia mouse model assessed as suppression of LPS-induced serum MCP-1 level at 10 mg/kg, po preincubated for 30 mins followed by LPS stimulation and measured after 90 mins; type: functional, organism-based; conditions: time 120.0 min
# [5] = system: Mus musculus; assay: Anti-inflammatory activity in endotoxemia mouse model assessed as suppression of LPS-induced serum IL-6 level at 10 mg/kg, po preincubated for 30 mins followed by LPS stimulation and measured after 90 mins; type: functional, organism-based; conditions: time 120.0 min
Structure (SMILES),IC50 [1] [nM],concentration at 2 h [2] [ng/mL],concentration at 2 h [3] [ng/mL],Activity [4],Activity [5]
Cc1sc2c(c1C)C(c1ccc(Cl)cc1)=N[C@@H](CC(=O)OC(C)(C)C)c1nnc(C)n1-2,2,–,–,–,–
Cc1csc(-c2cn(C)c(=O)c3cn(CC4CC(C(=O)NC5CCCCC5)CCN(C)C4)nc23)n1 (stereo unspecified),1,39.1,707,Active,Active

# Source: ChEMBL document CHEMBL5576079, “Discovery of a potent orally available pyrazolopyridone derivative as a novel selective bromodomain and extra-terminal domain (BET)-first bromodomain (BD1) inhibitor” (Bioorg Med Chem Lett, 2024)
